One series concerns Bacteria. Nature of the series: Inhibition of bacterial CDP-ME kinase assessed as ATP depletion up to 57 uM measured by bioluminescent kinase Glo assay. To be noted: dose microM <=57.
Another series relates to HEK293. Nature of the series: Cytotoxicity against human HEK293 cells measured after 48 hrs by Cell Titer Glo assay. The series is classed as toxicity, cell-based. To be noted: hek293, 48 h.

Calls of active or inactive are those of the source. How the calls were made is not given here.

For `CC1=C(C(=O)Nc2ccccc2)C(c2ccccc2Br)N=C(Nc2nc3ccccc3o2)N1` (stereo unspecified), the inhibition result with Bacteria is “inactive”.
Still for that read-out and setting: the same measure for `O=C1CCCC2=C1C1(CCSCC1)N=C(Nc1nc3ccccc3o1)N2`: “inactive”; for `CC1=C(C(=O)Nc2ccon2)C2(CCCC2)N=C(Nc2nc3ccccc3o2)N1`: “inactive”; for `CC1=C(C(=O)Nc2nc3ccccc3s2)C(c2n[nH]cc2Cl)N=C(Nc2nc3ccccc3o2)N1` (stereo unspecified): “inactive”.
Take `Cc1ccc2nc(NC3=NC4(CCCC4)C4=C(CCCC4=O)N3)oc2c1`: the inhibition entry in the series on Bacteria is “inactive”. Moreover, the Activity entry in the series with HEK293 is “Non-Toxic”.
Turning to `CC1=C(C(=O)Nc2nncs2)C(c2nn(C)cc2Cl)N=C(Nc2nc3ccccc3o2)N1` (stereo unspecified), the inhibition result with Bacteria was “inactive”.
Same read-out and setting: the same measure for `CNC(=O)C1=C(C)NC(Nc2nc3ccccc3o2)=NC12CCCC2`: “inactive”.
In the case of `O=C1CCCC2=C1C1(CCC1)N=C(Nc1nc3ccccc3o1)N2`, the inhibition result in the series with Bacteria is “inactive”. The Activity result with HEK293 is recorded as “Non-Toxic”.
In the case of `O=C1CCCC2=C1C(c1cccc(F)c1)N=C(Nc1nc3ccccc3o1)N2` (stereo unspecified), the inhibition entry with Bacteria is “inactive”.
Same read-out and setting: the same measure for `CC1=C(C(=O)Nc2noc3ccccc23)C(c2nn(C)cc2Cl)N=C(Nc2nc3ccccc3o2)N1` (stereo unspecified): “inactive”; for `Cc1ccc(C2N=C(Nc3nc4ccccc4o3)NC3=C2C(=O)CCC3)s1` (stereo unspecified): “inactive”.
Take `O=C1CCCC2=C1C1(CCCC1)N=C(Nc1nc3cc(Br)ccc3o1)N2`: the inhibition result in the series on Bacteria was “inactive”. In addition, the Activity entry with HEK293 is “Non-Toxic”.
The corresponding values for `Cn1c(NC2=NC3(CCCC3)C3=C(CCCC3=O)N2)nc2ccccc21` are “inactive” and “Non-Toxic”.
Consider `CC1=C(C(=O)Nc2ccon2)C(c2ccccc2Br)N=C(Nc2nc3ccccc3o2)N1` (stereo unspecified), for which the inhibition entry with Bacteria was “inactive”.
The same measure, in the same setting: the same measure for `O=C1CCCC2=C1C(c1ncccc1C(F)(F)F)N=C(Nc1nc3ccccc3o1)N2` (stereo unspecified): “inactive”; for `O=C1CCCC2=C1C(c1ncccc1Br)N=C(Nc1nc3ccccc3o1)N2` (stereo unspecified): “inactive”.
`CC1CCC2(C1)N=C(Nc1nc3ccccc3o1)NC1=C2C(=O)CCC1` (stereo unspecified): the inhibition result with Bacteria was “inactive”.
On the same count and under the same terms, the entry for `Cc1cc(C2N=C(Nc3nc4ccccc4o3)NC3=C2C(=O)CCC3)n[nH]1` (stereo unspecified) is “inactive”.
The same measure, in the same setting: the same measure for `CC1=C(C(=O)N(C)C)C(c2ccccc2Br)N=C(Nc2nc3ccccc3o2)N1` (stereo unspecified): “inactive”.
On the same count and under the same terms, the same measure for `CC1=C(C(=O)Nc2nc3ccccc3o2)C2(CCCC2)N=C(Nc2nc3ccccc3o2)N1`: “inactive”; for `CC1=C(C(=O)Nc2ccon2)C(c2nn(C)cc2Cl)N=C(Nc2nc3ccccc3o2)N1` (stereo unspecified): “inactive”; for `O=C1CCCC2=C1C(c1n[nH]cc1Br)N=C(Nc1nc3ccccc3o1)N2` (stereo unspecified): “inactive”.
For the compound `O=C1CCCC2=C1[C@@]1(CCC(c3ccccc3)C1)N=C(Nc1nc3ccccc3o1)N2` (stereo partly specified), the inhibition entry in the series with Bacteria is “inactive”.
The same measure, in the same setting: the entry for `COc1ccccc1NC(=O)C1=C(C)NC(Nc2nc3ccccc3o2)=NC1c1ccccc1Br` (stereo unspecified) is “inactive”; for `O=C1CCCC2=C1C(c1ccccc1I)N=C(Nc1nc3ccccc3o1)N2` (stereo unspecified) it is “inactive”.
For the compound `CNC(=O)C1=C(C)NC(Nc2nc3ccccc3o2)=NC1c1n[nH]cc1Cl` (stereo unspecified), the inhibition result with Bacteria was “inactive”.
The same measure, in the same setting: the entry for `Cc1cccc(C2N=C(Nc3nc4ccccc4o3)NC3=C2C(=O)CCC3)c1` (stereo unspecified) is “inactive”.
On the same count and under the same terms, the entry for `Cc1ccc(C2N=C(Nc3nc4ccccc4o3)NC3=C2C(=O)CCC3)cc1` (stereo unspecified) is “inactive”.
On the same count and under the same terms, the entry for `O=C1CC(c2ccccc2)CC2=C1C1(CCCC1)N=C(Nc1nc3ccccc3o1)N2` (stereo unspecified) is “inactive”; for `CC1=C(C(=O)Nc2nncs2)C2(CCCC2)N=C(Nc2nc3ccccc3o2)N1` it is “inactive”.
For the compound `Cc1ccsc1C1N=C(Nc2nc3ccccc3o2)NC2=C1C(=O)CCC2` (stereo unspecified), the inhibition entry with Bacteria was “inactive”.
As for `CCC1CCC2(C1)N=C(Nc1nc3ccccc3o1)NC1=C2C(=O)CCC1` (stereo unspecified), the inhibition entry with Bacteria is “inactive”.
The same measure, in the same setting: the same measure for `O=C1CCCC2=C1C(c1ccccc1Br)N=C(Nc1nc3ccccc3o1)N2` (stereo unspecified): “inactive”; for `O=C1CCCC2=C1C(c1ccccc1Cl)N=C(Nc1nc3ccccc3o1)N2` (stereo unspecified): “inactive”; for `CC1=C(C(=O)N(C)c2ccccc2C)C(c2ccccc2Br)N=C(Nc2nc3ccccc3o2)N1` (stereo unspecified): “inactive”.
The same measure, in the same setting: the entry for `CNC(=O)C1=C(C)NC(Nc2nc3ccccc3o2)=NC1c1nn(C)cc1Cl` (stereo unspecified) is “inactive”; for `CC1=C(C(=O)NC2CC2)C(c2n[nH]cc2Cl)N=C(Nc2nc3ccccc3o2)N1` (stereo unspecified) it is “inactive”; for `CN(C)c1ccc(C2N=C(Nc3nc4ccccc4o3)NC3=C2C(=O)CCC3)cc1` (stereo unspecified) it is “inactive”.
Turning to `O=C1CCCC2=C1C(c1ccccc1)N=C(Nc1nc3ccccc3o1)N2` (stereo unspecified), the inhibition result in the series on Bacteria was “inactive”.
On the same count and under the same terms, the same measure for `O=C1CCCC2=C1C1(CCS(=O)(=O)C1)N=C(Nc1nc3ccccc3o1)N2` (stereo unspecified): “inactive”; for `O=C1CCCC2=C1C(c1ccncc1Cl)N=C(Nc1nc3ccccc3o1)N2` (stereo unspecified): “inactive”.
Same read-out and setting: the same measure for `COc1cccc(C2N=C(Nc3nc4ccccc4o3)NC3=C2C(=O)CCC3)c1` (stereo unspecified): “inactive”; for `CC1=C(C(=O)NCc2ccccc2)C(c2ccccc2Br)N=C(Nc2nc3ccccc3o2)N1` (stereo unspecified): “inactive”; for `CC1=C(C(=O)Nc2ccc(Cl)cc2)C(c2ccccc2Br)N=C(Nc2nc3ccccc3o2)N1` (stereo unspecified): “inactive”.
For `O=C1CCCC2=C1C(c1ccc(Cl)cc1)N=C(Nc1nc3ccccc3o1)N2` (stereo unspecified), in the series with Bacteria, the inhibition entry is “inactive”.
As for `CC1=C(C(=O)Nc2ccc(C)cc2)C(c2ccccc2Br)N=C(Nc2nc3ccccc3o2)N1` (stereo unspecified), the inhibition result with Bacteria was “inactive”.
Regarding `CC1=C(C(=O)Nc2ccccc2C)C(c2ccccc2Br)N=C(Nc2nc3ccccc3o2)N1` (stereo unspecified), the inhibition result with Bacteria is “inactive”.
For `Cn1cc(Br)c(C2N=C(Nc3nc4ccccc4o3)NC3=C2C(=O)CCC3)n1` (stereo unspecified), the inhibition result in the series on Bacteria was “inactive”.
Same read-out and setting: the entry for `CC1(C)CC(=O)C2=C(C1)NC(Nc1nc3ccccc3o1)=NC21CCCCC1` is “inactive”; for `CC1=C(C(=O)NC2CC2)C(c2nn(C)cc2Cl)N=C(Nc2nc3ccccc3o2)N1` (stereo unspecified) it is “inactive”; for `O=C1CCCC2=C1C(c1ccncc1Br)N=C(Nc1nc3ccccc3o1)N2` (stereo unspecified) it is “inactive”.
On the same count and under the same terms, the same measure for `O=C1CCCC2=C1C(c1ccn[nH]1)N=C(Nc1nc3ccccc3o1)N2` (stereo unspecified): “inactive”; for `O=C1CCCC2=C1C(c1cccnc1)N=C(Nc1nc3ccccc3o1)N2` (stereo unspecified): “inactive”.
As for `CC1=C(C(=O)Nc2nnc(-c3ccccc3)s2)C(c2n[nH]cc2Cl)N=C(Nc2nc3ccccc3o2)N1` (stereo unspecified), in the series on Bacteria, the inhibition entry is “inactive”.
Still for that read-out and setting: the entry for `CC1=C(C(=O)Nc2nc3ccccc3s2)C(c2nn(C)cc2Cl)N=C(Nc2nc3ccccc3o2)N1` (stereo unspecified) is “inactive”.
The same measure, in the same setting: the entry for `O=C1CCCC2=C1C1(CCSC1)N=C(Nc1nc3ccccc3o1)N2` (stereo unspecified) is “inactive”; for `CC1=C(C(=O)Nc2nc3ccccc3s2)C2(CCCC2)N=C(Nc2nc3ccccc3o2)N1` it is “inactive”.
Still for that read-out and setting: the same measure for `COc1ccc(NC(=O)C2=C(C)NC(Nc3nc4ccccc4o3)=NC2c2ccccc2Br)cc1` (stereo unspecified): “inactive”.
With `O=C1CCCC2=C1C(c1cnccc1C(F)(F)F)N=C(Nc1nc3ccccc3o1)N2` (stereo unspecified), in the series on Bacteria, the inhibition result was “inactive”.
Same read-out and setting: the entry for `O=C1CCCC2=C1C1(CCCOC1)N=C(Nc1nc3ccccc3o1)N2` (stereo unspecified) is “inactive”; for `CC1=C(C(=O)Nc2nccs2)C(c2ccccc2Br)N=C(Nc2nc3ccccc3o2)N1` (stereo unspecified) it is “inactive”; for `O=C1CCCC2=C1C1(CCCC1)N=C(Nc1nc3cc(-c4ccccc4)ccc3o1)N2` it is “inactive”.
As to `O=C1CCCC2=C1C1(CCOCC1)N=C(Nc1nc3ccccc3o1)N2`, the inhibition entry in the series with Bacteria is “inactive”.
As for `O=C1CCCC2=C1C(c1c(Cl)cccc1Cl)N=C(Nc1nc3ccccc3o1)N2` (stereo unspecified), the inhibition entry in the series on Bacteria was “inactive”.
The same measure, in the same setting: the entry for `O=C1CCCC2=C1C(c1cccc(Cl)c1)N=C(Nc1nc3ccccc3o1)N2` (stereo unspecified) is “inactive”; for `CC1=C(C(=O)Nc2nncs2)C(c2ccccc2Br)N=C(Nc2nc3ccccc3o2)N1` (stereo unspecified) it is “inactive”.
Same read-out and setting: the entry for `COc1ccc(C2N=C(Nc3nc4ccccc4o3)NC3=C2C(=O)CCC3)cc1` (stereo unspecified) is “inactive”; for `O=C1CCCC2=C1C(c1cccc(C(F)(F)F)c1)N=C(Nc1nc3ccccc3o1)N2` (stereo unspecified) it is “inactive”.
`O=C1CCCC2=C1C(c1ccccc1C(F)(F)F)N=C(Nc1nc3ccccc3o1)N2` (stereo unspecified): the inhibition entry in the series on Bacteria is “inactive”.
The same measure, in the same setting: the entry for `Cn1ncc(Cl)c1C1N=C(Nc2nc3ccccc3o2)NC2=C1C(=O)CCC2` (stereo unspecified) is “inactive”; for `COc1ccccc1C1N=C(Nc2nc3ccccc3o2)NC2=C1C(=O)CCC2` (stereo unspecified) it is “inactive”.
On the same count and under the same terms, the same measure for `O=C1CCCC2=C1C(c1cccnc1Br)N=C(Nc1nc3ccccc3o1)N2` (stereo unspecified): “inactive”; for `O=C1CCCC2=C1C(c1ccc(F)cc1)N=C(Nc1nc3ccccc3o1)N2` (stereo unspecified): “inactive”.
Take `CC1=C(C(=O)NC2CCCC2)C(c2n[nH]cc2Cl)N=C(Nc2nc3ccccc3o2)N1` (stereo unspecified): the inhibition entry with Bacteria was “inactive”.
The same measure, in the same setting: the same measure for `O=C1CCC2=C1C(c1ccccc1Cl)N=C(Nc1nc3ccccc3o1)N2` (stereo unspecified): “inactive”.
On the same count and under the same terms, the entry for `O=C1CCCC2=C1C1(CCCC1)N=C(Nc1nc3ccccc3n1Cc1ccccc1)N2` is “inactive”.
On the same count and under the same terms, the same measure for `O=C1CCCC2=C1C(c1n[nH]cc1Cl)NC(Nc1nc3ccccc3o1)=N2` (stereo unspecified): “inactive”.
For the compound `CC1(C)N=C(Nc2nc3ccccc3o2)NC2=C1C(=O)CCC2`, the inhibition entry in the series on Bacteria was “inactive”.
The same measure, in the same setting: the entry for `O=C1CCCC2=C1C(c1ccncc1)N=C(Nc1nc3ccccc3o1)N2` (stereo unspecified) is “inactive”; for `CC1=C(C(=O)n2ccc3ccccc32)C(c2ccccc2Br)N=C(Nc2nc3ccccc3o2)N1` (stereo unspecified) it is “inactive”; for `CC1=C(C(=O)NC2CCCCC2)C(c2ccccc2Br)N=C(Nc2nc3ccccc3o2)N1` (stereo unspecified) it is “inactive”.
Still for that read-out and setting: the entry for `O=C1CCCC2=C1C(c1cccnc1Cl)N=C(Nc1nc3ccccc3o1)N2` (stereo unspecified) is “inactive”.

Source of the values: ChEMBL document CHEMBL5052821, “Galactokinase inhibitors for the treatment and prevention of associated diseases and disorders” (2019).
